For three compounds, Ki results are on record in patent US5677282A (Proscript, Inc., priority 1995, dated 1997).

Holding throughout (type): biochemical
One test deals with 92 kD gelatinase (Homo sapiens, UniProt P14780). In words: Assay of 92 KD gelatinase inhibition activity. To be noted: 92KD gelatinase 25 pM, H-150 buffer pH 7.4; read-out: Ki(app). The method, boiled down: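 Pro-92 kD gelatinase activated with 1 mM p-aminophenyl mercuric acetate, 24 h at 37 °C. Assay: 25 pM enzyme in H-150 buffer pH 7.4 with coumarin peptide substrate; hydrolysis rate followed by fluorescence over 100-200 s. Inhibitor titrated in until 30-70% inhibition; Ki calculated assuming simple competitive inhibition with substrate well below Km.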

Test [1] addresses human neutrophil collagenase (Homo sapiens, UniProt P22894). The test can be described thus: Assay of human neutrophil collagenase inhibition activity. The settings on record: human neutrophil collagenase 2 nM, H-150 buffer pH 7.4; read-out: Ki(app). Put shortly:
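Human neutrophil collagenase (2 nM) in HEPES/NaCl/CaCl2 buffer, pH 7.4, was followed by fluorescence of coumarin peptide substrate hydrolysis over about 100-200 s. Inhibitor was added stepwise until 30-70% rate reduction. Ki was calculated assuming simple competitive inhibition with substrate far below Km.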

In another test the target is stromelysin (Homo sapiens, UniProt P08254). In words: Assay of stromelysin inhibition activity (fluorogenic coumarin peptide substrate). The settings on record: trypsin-activated stromelysin 2 nM, H-150 buffer pH 7.4, room temperature; read-out: Ki(app). Put shortly:
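Human stromelysin trypsin-activated, then used at 2 nM in HEPES/NaCl/CaCl2 buffer pH 7.4 at room temperature with coumarin peptide substrate. Initial hydrolysis rate followed by fluorescence (ex 328/em 393 nm); inhibitor added stepwise to 30-70% inhibition, Ki derived assuming simple competitive inhibition with substrate far below Km.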

“And” between values parts separate entries of the source, which are not always exact repeats. Equal entries are not always repeated.

Sequence of stromelysin (P08254 100-477): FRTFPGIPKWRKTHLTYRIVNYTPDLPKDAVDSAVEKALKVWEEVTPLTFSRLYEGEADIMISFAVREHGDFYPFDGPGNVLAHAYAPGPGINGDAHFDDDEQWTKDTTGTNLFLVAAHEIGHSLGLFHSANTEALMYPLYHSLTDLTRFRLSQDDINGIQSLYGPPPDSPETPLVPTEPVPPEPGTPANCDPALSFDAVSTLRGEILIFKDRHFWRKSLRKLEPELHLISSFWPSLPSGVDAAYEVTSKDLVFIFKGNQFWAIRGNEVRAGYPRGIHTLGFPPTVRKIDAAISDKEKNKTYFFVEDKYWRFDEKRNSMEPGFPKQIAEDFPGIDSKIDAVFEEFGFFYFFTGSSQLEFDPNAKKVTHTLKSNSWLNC
Sequence of human neutrophil collagenase (P22894 101-467): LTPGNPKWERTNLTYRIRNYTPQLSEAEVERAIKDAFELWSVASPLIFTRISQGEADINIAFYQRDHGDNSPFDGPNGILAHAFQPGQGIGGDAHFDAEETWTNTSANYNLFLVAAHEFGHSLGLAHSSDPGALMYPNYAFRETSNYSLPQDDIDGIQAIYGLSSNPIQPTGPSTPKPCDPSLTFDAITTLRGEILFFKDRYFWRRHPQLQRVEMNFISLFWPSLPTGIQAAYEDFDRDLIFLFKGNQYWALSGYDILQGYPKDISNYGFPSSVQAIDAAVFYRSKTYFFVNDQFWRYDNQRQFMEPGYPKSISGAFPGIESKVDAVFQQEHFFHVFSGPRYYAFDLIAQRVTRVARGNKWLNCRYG
Sequence of 92 kD gelatinase (P14780 107-707): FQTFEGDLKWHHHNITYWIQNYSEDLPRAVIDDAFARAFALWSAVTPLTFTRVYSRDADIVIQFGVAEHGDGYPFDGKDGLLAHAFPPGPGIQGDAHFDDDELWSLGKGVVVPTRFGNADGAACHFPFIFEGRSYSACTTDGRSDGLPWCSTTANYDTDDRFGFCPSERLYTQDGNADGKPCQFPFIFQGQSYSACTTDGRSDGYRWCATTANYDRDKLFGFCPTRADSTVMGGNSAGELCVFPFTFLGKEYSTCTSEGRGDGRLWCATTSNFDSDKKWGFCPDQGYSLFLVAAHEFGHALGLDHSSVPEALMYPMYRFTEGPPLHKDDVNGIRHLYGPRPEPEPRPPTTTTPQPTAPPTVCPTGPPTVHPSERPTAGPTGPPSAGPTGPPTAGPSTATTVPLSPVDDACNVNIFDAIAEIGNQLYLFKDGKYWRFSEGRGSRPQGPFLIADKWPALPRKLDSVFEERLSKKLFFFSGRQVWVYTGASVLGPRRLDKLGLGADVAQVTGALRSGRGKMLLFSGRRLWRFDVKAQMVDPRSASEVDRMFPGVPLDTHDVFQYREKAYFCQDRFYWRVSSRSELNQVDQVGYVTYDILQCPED

`CC(C)[C@H](NC(=O)[C@H](Cc1ccccc1)NC(=O)OCc1ccccc1)C(=O)Nc1n[nH]c(=S)s1` [5-(N-benzyloxycarbonyl-phenylalanyl-valylamino)-1,3,4-thiadiazole-2-thione]: the Ki on 92 kD gelatinase was 1.5 nM; in test [1], 4.8 nM and 7.8 nM; on stromelysin it was 279 nM.

Regarding `CC(C)C[C@H](NC(=O)[C@H](Cc1ccccc1)NC(=O)OCc1ccccc1)C(=O)Nc1n[nH]c(=S)s1` [5-(N-benzyloxycarbonyl-phenylalanyl-leucylamino)-1,3,4-thiadiazole-2-thione], the Ki came to 2.3 nM at 92 kD gelatinase and 169 nM on stromelysin.

Regarding `O=C(N[C@@H](Cc1ccc(OCc2ccccc2)cc1)C(=O)N[C@H](C(=O)Nc1n[nH]c(=S)s1)c1ccccc1)OCc1ccccc1`, the Ki in test [1] was 1.57 nM; at stromelysin, 39 nM and 64 nM.
